Source: US11197878B2, “Anti-inflammatory composition including novel quercetin-based compound” (AMOREPACIFIC CORPORATION, priority 2017, dated 2021)

Assays:
Format in all cases: cell-based
IL-8 (Interleukin 8) = experiment: Test for inhibiting generation of IL-8 in H2O2-stimulated fibroblast (ELISA); details: for inhibition at 100 µg/mL: Fibroblast, 100 μg/ml, {1−(test sample−control)/(H2O2−control)}×100, read-out: Inhibition effect according to Equation 1, IL-8; for IL-8: fibroblast culture medium, H2O2 500 μM 24 hours, then test material (31, 32: 100 μg/ml) 48 hours, ELISA
Method: (§1) Fibroblast (PromoCell, Germany) was inoculated in a 6-well culturing plate at a concentration of 1×10^5 cells, and cultured in a 5% CO2 incubator at 37° C. for 24 hours. The well was treated with H2O2 500 μM and stimulated for 24 hours, and then were treated with quercetin3-O-[3-O″-(E)-p-coumaroyl][β-D-glucopyranosyl-(1→3)-O-α-L-rhamnopyranosyl-(1→6)-O-β-D-glucopyranoside] (‘New Material 31’) and quercetin3-O-[3-O″-(E)-p-coumaroyl][α-L-rhamnopyranosyl-(1→6)-O-β-D-glucopyranoside]) (‘New Material 32’) at a concentration of 100 μg/ml, respectively, and reacted for 48 hours. After the reaction was finished, the culture medium was collected and the ELISA analysis was performed. Herein, α-bisabolol, which is the material typically used as an anti-inflammatory agent and abirritant, was used as a control. As PGE2, a kit of Assay Design® was used, and as IL-6 and IL-8, a kit of Endogen® was used, and the test was carried out according to the methods prescribed in the manuals of the respective companies. (‘31’ refers to New Material 31, and ‘32’ refers to New Material 32) Inhibition effect={1−(test sample−control)/(H2O2−control)}×100 <Equation 1>

IL-6 (Interleukin 6) = experiment: Test for inhibiting generation of IL-6 in H2O2-stimulated fibroblast (ELISA); details: for inhibition at 100 µg/mL: Fibroblast, 100 μg/ml, {1−(test sample−control)/(H2O2−control)}×100, read-out: Inhibition effect according to Equation 1, IL-6; for IL-6: fibroblast culture medium, H2O2 500 μM 24 hours, then test material (31, 32: 100 μg/ml) 48 hours, ELISA
Method: as §1

PGE2 (Prostaglandin E2) = experiment: Test for inhibiting generation of PGE2 in H2O2-stimulated fibroblast (ELISA); details: for inhibition at 100 µg/mL: Fibroblast, 100 μg/ml, {1−(test sample−control)/(H2O2−control)}×100, read-out: Inhibition effect according to Equation 1, PGE2; for PGE2: fibroblast culture medium, H2O2 500 μM 24 hours, then test material (31, 32: 100 μg/ml) 48 hours, ELISA
Method: as §1

SMILES	inhibition at 100 µg/mL (IL-8 (Interleukin 8)) [%]	IL-8 (IL-8 (Interleukin 8)) [pg/mL]	inhibition at 100 µg/mL (IL-6 (Interleukin 6)) [%]	IL-6 (IL-6 (Interleukin 6)) [pg/mL]	inhibition at 100 µg/mL (PGE2 (Prostaglandin E2)) [%]	PGE2 (PGE2 (Prostaglandin E2)) [pg/mL]
C[C@@H]1O[C@@H](OC[C@H]2O[C@@H](Oc3c(-c4ccc(O)c(O)c4)oc4cc(O)cc(O)c4c3=O)[C@H](O)[C@@H](OC(=O)/C=C/c3ccc(O)cc3)[C@@H]2O)[C@H](O)[C@H](O[C@@H]2O[C@H](CO)[C@@H](O)[C@H](O)[C@H]2O)[C@H]1O [New Material 31, quercetin3-O-[3-O″-(E)-p-coumaroyl][β-D-glucopyranosyl-(1→3)-O-α-L-rhamnopyranosyl-(1→6)-O-β-D-glucopyranoside]]	61.1	235	29.2	226	51.7	275
C[C@@H]1O[C@@H](OC[C@H]2O[C@@H](Oc3c(-c4ccc(O)c(O)c4)oc4cc(O)cc(O)c4c3=O)[C@H](O)[C@@H](OC(=O)/C=C/c3ccc(O)cc3)[C@@H]2O)[C@H](O)[C@H](O)[C@H]1O [New Material 32, quercetin3-O-[3-O″-(E)-p-coumaroyl][α-L-rhamnopyranosyl-(1→6)-O-β-D-glucopyranoside]]	61.1	235	29.2	226	48.3	280
